Earlier results, collected in US20050058718A1, “Preparations for cigarette toxicity reduction, health enhancement, and addiction elimination” (priority 2003, published 2005).

Tests used:
[1] = tested on: cancer incidence
[2] = tested on: cancer cells; conditions: cancer cells external of the human body treated by selenium
[3] = tested on: leukoderma in their mouths and throats; conditions: 3 ppm selenium in drinking water
[4] = 1300 people, 200 ug selenium daily for five years

[Se] [selenium]
reduction of large intestine and rectum cancer incidence [1, 4]: 58%
reduction of lung cancer incidence [1, 4]: 46%
reduction of prostate cancer incidence [1, 4]: 63%
more chance to survive when sick from cancer ([1]; selenium takers sick from cancer): 50%
decrease of carcinogenicity of cancer cells [2]: 60%
delay of cancer formation versus control group [3]: two more weeks
